Results from ChEMBL document CHEMBL4483862, “Open-source discovery of chemical leads for next-generation chemoprotective antimalarials” (2018).

Tested on: Plasmodium berghei
Assay: Luciferase/luciferin-expressing antifolate-resistant parasites were used to infect a culture of HepG2 cells that were pre-incubated with compounds. Infected hepatocytes emit light due to the luciferase reaction. Assay results are presented as the percent inhibition of light emission compared to control. […]
Format: functional
Conditions: sporozoite; for IC90: read-out: LUCIFERASE INFECTION ASSAY - IC90
[1] = read-out: LUCIFERASE INFECTION ASSAY - IC50

Row | SMILES | IC90 | IC50 [1] | further results
1 | O=C(Nc1ccccc1O)c1ccc(Cn2ccnc2)cc1 | 6.19 µM | – | IC50 (PBLUC_HILL_SLOPE 1.6, PBLUC_R_SQUARED 0.598, read-out: LUCIFERASE INFECTION ASSAY - IC50): 1.57 µM
2 | Cc1ccsc1CN(C)C(C)C(=O)Nc1cc(C(F)(F)F)ccc1N1CCOCC1 (centres undefined) | > 10 µM | – | IC50 (PBLUC_HILL_SLOPE 0.840, 16.2, PBLUC_R_SQUARED 0.288, 0.265, read-out: LUCIFERASE INFECTION ASSAY - IC50): > 10 µM
3 | Clc1ccc(-c2cnc3ccc(NCc4ccc5c(c4)OCO5)nn23)cc1 | > 8.71 µM | > 8.71 µM | –
4 | COc1cccc(Nc2nc(C(N)Cc3ccc(C(F)(F)F)cc3)cs2)n1 (centres undefined) | 3.58 µM | – | IC50 (PBLUC_HILL_SLOPE 179, PBLUC_R_SQUARED 0.233, read-out: LUCIFERASE INFECTION ASSAY - IC50): 3.53 µM
5 | O=C(NCC1COc2ccccc2O1)c1cccc(S(=O)(=O)N2CCC(Cc3ccccc3)CC2)c1 (centres undefined) | > 10 µM | > 10 µM | –
6 | N#CC1=C2SC=C(c3ccc(Br)cc3)N2CCCC1=O | > 10 µM | > 10 µM | –
7 | O=C1C(=C2NC(c3cccc(C(F)(F)F)c3)=CS2)Sc2ccccc21 | 3.25 µM | – | IC50 (FFLUC_HILL_SLOPE 302, FFLUC_R_SQUARED 0.711, PBLUC_HILL_SLOPE 16.1, PBLUC_R_SQUARED 0.464, read-out: LUCIFERASE INFECTION ASSAY - IC50): 2.83 µM
8 | COc1cc(C(=O)c2c(C)c(CCC#N)n3ccccc23)cc(OC)c1OC | 6.92 µM | 2 µM | –
9 | CCN(CC)C(CNc1ccc([N+](=O)[O-])cn1)Cc1ccccc1 (centres undefined) | > 10 µM | 7 µM | –
10 | O=S(=O)(c1c(Cl)cc(Br)cc1Cl)N1CCN(C(=S)NC2CC3CCC2C3)CC1 (centres undefined) | > 10 µM | – | IC50 (PBLUC_HILL_SLOPE 16.2, PBLUC_R_SQUARED 0.114, read-out: LUCIFERASE INFECTION ASSAY - IC50): 8.93 µM
11 | Cc1oc2c(c1C(=O)N1CCC(C)CC1)C(=O)c1ccccc1C2=O | > 10 µM | – | IC50 (HEPG2TOX_HILL_SLOPE 3.97, HEPG2TOX_R_SQUARED 0.955, PBLUC_HILL_SLOPE 1.55, PBLUC_R_SQUARED 0.65, read-out: LUCIFERASE INFECTION ASSAY - IC50): 2.73 µM
12 | CC1(C)Cc2c(C#N)c(Nc3ccccc3)nc(NCCCO)c2CO1 | > 9.36 µM | > 9.36 µM | –
13 | CCn1c(=O)c(=O)[nH]c2cc(C(=O)Nc3cccc(C#Cc4cccs4)c3)ccc21 | > 10 µM | > 10 µM | –
14 | CCCCCCCCCCCc1n[nH]c(=S)n1-c1ccccc1C(F)(F)F | > 8.26 µM | – | IC50 (FFLUC_HILL_SLOPE 1.62, FFLUC_R_SQUARED 0.783, read-out: LUCIFERASE INFECTION ASSAY - IC50): > 8.26 µM
15 | COc1ccc(-c2nnc(NC(=O)c3ccc(C)c(S(=O)(=O)N4CCCCC4)c3)[nH]2)cc1 | 6.51 µM | – | IC50 (HEPG2TOX_HILL_SLOPE 2.01, HEPG2TOX_R_SQUARED 0.893, PBLUC_HILL_SLOPE 2.99, PBLUC_R_SQUARED 0.681, read-out: LUCIFERASE INFECTION ASSAY - IC50): 3.12 µM
16 | c1ccc(NCCNc2nc(-c3ccncc3)nc3ccccc23)nc1 | > 10 µM | – | IC50 (PBLUC_HILL_SLOPE 1.36, PBLUC_R_SQUARED 0.325, read-out: LUCIFERASE INFECTION ASSAY - IC50): 5.09 µM
17 | CC(=O)Nc1cccc(-c2ccnc3c2CC(C)(C(=O)NCc2cccc(Cl)c2)O3)c1 (centres undefined) | > 7.57 µM | – | IC50 (FFLUC_HILL_SLOPE 12.6, FFLUC_R_SQUARED 0.486, HEPG2TOX_HILL_SLOPE 12, HEPG2TOX_R_SQUARED 0.561, PBLUC_HILL_SLOPE 2.25, PBLUC_R_SQUARED 0.29, read-out: LUCIFERASE INFECTION ASSAY - IC50): 4.2 µM
18 | COc1ccc(N(Cc2cn(-c3ccccc3)nc2-c2ccc(Cl)cc2)S(=O)(=O)c2ccccc2)cc1 | > 10 µM | – | IC50 (FFLUC_HILL_SLOPE 12.1, FFLUC_R_SQUARED 0.616, PBLUC_HILL_SLOPE 4, PBLUC_R_SQUARED 0.331, read-out: LUCIFERASE INFECTION ASSAY - IC50): 7.59 µM
19 | c1csc(-c2cn3c(-c4ccc5ncccc5c4)cnc3cn2)c1 | 8.95 µM | – | IC50 (HEPG2TOX_HILL_SLOPE 2.44, HEPG2TOX_R_SQUARED 0.922, PBLUC_HILL_SLOPE 1.55, PBLUC_R_SQUARED 0.705, read-out: LUCIFERASE INFECTION ASSAY - IC50): 2.17 µM
20 | Cc1cc(C)n(-c2nc(C)c(Br)c(NC(C)c3ccccc3)n2)n1 (centres undefined) | > 8.54 µM | – | IC50 (PBLUC_HILL_SLOPE 5.33, PBLUC_R_SQUARED 0.256, read-out: LUCIFERASE INFECTION ASSAY - IC50): 5.95 µM
21 | Cc1nn(-c2ccccc2)c2nc(-c3cccs3)cc(C(=O)Nc3cc(Cl)ccc3N3CCN(C)CC3)c12 | 9.44 µM | – | IC50 (PBLUC_HILL_SLOPE 12, PBLUC_R_SQUARED 0.52, read-out: LUCIFERASE INFECTION ASSAY - IC50): 7.85 µM

Row | SMILES | IC90 | IC50 [1] | further results
22 | COc1ccc(-c2cc(C(=O)NNC3=NCCC3)c3c(C)nn(-c4ccccc4)c3n2)cc1 | > 10 µM | – | IC50 (PBLUC_HILL_SLOPE 16.7, PBLUC_R_SQUARED 0.16, read-out: LUCIFERASE INFECTION ASSAY - IC50): 9.26 µM
23 | Cc1cc(C(C)(C)C)cc(C)c1C[n+]1c2n(c3ccc(C(F)(F)F)cc31)CCCCC2 | 2.85 µM | – | IC50 (HEPG2TOX_HILL_SLOPE 3.95, HEPG2TOX_R_SQUARED 0.938, PBLUC_HILL_SLOPE 4.2, PBLUC_R_SQUARED 0.767, read-out: LUCIFERASE INFECTION ASSAY - IC50): 1.69 µM
24 | Cc1cccc(C(=O)Nc2nc3ccc(C)cn3c2C(=O)NC2CCCC2)c1 | 7.46 µM | – | IC50 (PBLUC_HILL_SLOPE 3.54, PBLUC_R_SQUARED 0.461, read-out: LUCIFERASE INFECTION ASSAY - IC50): 4.01 µM
25 | CCC(NCC(O)COc1ccccc1C(C)C)c1ccc(Br)cc1 (centres undefined) | > 10 µM | – | IC50 (PBLUC_HILL_SLOPE 15.5, PBLUC_R_SQUARED 0.67, read-out: LUCIFERASE INFECTION ASSAY - IC50): 9.4 µM
26 | CCN1C(=O)N(C2Cc3ccccc3C2)C(=O)C12CCN(Cc1cc3ccccc3[nH]1)CC2 | > 7.46 µM | – | IC50 (HEPG2TOX_HILL_SLOPE 3.47, HEPG2TOX_R_SQUARED 0.984, PBLUC_HILL_SLOPE 2.65, PBLUC_R_SQUARED 0.483, read-out: LUCIFERASE INFECTION ASSAY - IC50): 3.77 µM
27 | CN(CC(=O)Nc1ccccc1N1CCCC1)Cc1ccc2ccccc2c1 | 0.646 µM | – | IC50 (HEPG2TOX_HILL_SLOPE 0.547, HEPG2TOX_R_SQUARED 0.872, PBLUC_HILL_SLOPE 2.05, PBLUC_R_SQUARED 0.897, read-out: LUCIFERASE INFECTION ASSAY - IC50): 0.221 µM
28 | CC(C)CC(N)c1csc(NC(=O)Nc2ccccc2C(C)(C)C)n1 (centres undefined) | 3.05 µM | – | IC50 (PBLUC_HILL_SLOPE 4.98, PBLUC_R_SQUARED 0.541, read-out: LUCIFERASE INFECTION ASSAY - IC50): 1.96 µM
29 | CC(NC(=S)Nc1ccc(Oc2ccc(Cl)cc2)cc1)c1ccccc1 (centres undefined) | > 8.62 µM | 7.1 µM | –
30 | O=C(Cn1c(=O)ccn(Cc2ccccc2)c1=O)N1CCC(n2c(=O)[nH]c3ccccc32)CC1 | > 10 µM | > 10 µM | –
31 | Cc1csc(NC(=O)c2cc(C3CC3)n[nH]2)n1 | > 10 µM | – | IC50 (FFLUC_HILL_SLOPE 1.65, FFLUC_R_SQUARED 0.902, read-out: LUCIFERASE INFECTION ASSAY - IC50): > 10 µM
32 | CC(C)(C)c1n[nH]c2c(-c3nc4ccccc4s3)c(N)nn2c1=O | 5.67 µM | – | IC50 (HEPG2TOX_HILL_SLOPE 1.58, HEPG2TOX_R_SQUARED 0.969, PBLUC_HILL_SLOPE 3.76, PBLUC_R_SQUARED 0.505, read-out: LUCIFERASE INFECTION ASSAY - IC50): 3.16 µM
33 | CCCN1CCN(C(=O)c2ccc(-c3ccc(C(C)=O)cc3)o2)CC1 | > 10 µM | – | IC50 (PBLUC_HILL_SLOPE 0.574, PBLUC_R_SQUARED 0.0124, read-out: LUCIFERASE INFECTION ASSAY - IC50): > 10 µM
34 | COCc1ccc(C(=O)Nc2ccc(-n3cnc4ccccc43)nc2)cc1 | > 10 µM | – | IC50 (HEPG2TOX_HILL_SLOPE 7.46, HEPG2TOX_R_SQUARED 0.472, PBLUC_HILL_SLOPE 11.4, PBLUC_R_SQUARED 0.343, read-out: LUCIFERASE INFECTION ASSAY - IC50): 9.69 µM
35 | Cc1cc(Nc2ccc(C(c3ccc(C(=O)O)cc3)c3ccc(Nc4cc(C)nn4-c4ccccc4)nc3Cl)c(Cl)n2)n(-c2ccccc2)n1 | > 10 µM | – | IC50 (PBLUC_HILL_SLOPE 2.61, PBLUC_R_SQUARED 0.324, read-out: LUCIFERASE INFECTION ASSAY - IC50): 6.2 µM
36 | O=[N+]([O-])c1ccc2nc3c(c(-c4ccccc4)c2c1)CSc1ccccc1-3 | > 10 µM | > 10 µM | –
37 | Cc1ccc(C2=NNC(=Nc3cccc(S(=O)(=O)N(C)C)c3)SC2)cc1 | 4.33 µM | 3.5 µM | –
38 | O=S(=O)(Nc1cccc2cccnc12)c1cc(Cl)c(Cl)cc1Cl | > 8.51 µM | – | IC50 (PBLUC_HILL_SLOPE 9.06, PBLUC_R_SQUARED 0.472, read-out: LUCIFERASE INFECTION ASSAY - IC50): > 8.51 µM
39 | O=C(Nc1cccc(S(=O)(=O)Nc2ccc(Cl)cc2)c1)c1[nH]nc2ccccc12 | > 10 µM | 8.98 µM | –
40 | CC(C)Cn1c(-c2cccs2)nc2c(c(=O)c3ccccc3n2C)c1=O | 8.59 µM | – | IC50 (PBLUC_HILL_SLOPE 2.62, PBLUC_R_SQUARED 0.237, read-out: LUCIFERASE INFECTION ASSAY - IC50): 3.71 µM
41 | N#Cc1ccc(-c2cnc3cnc(-c4cccs4)cn23)cc1 | 9.18 µM | – | IC50 (PBLUC_HILL_SLOPE 3.09, PBLUC_R_SQUARED 0.489, read-out: LUCIFERASE INFECTION ASSAY - IC50): 4.51 µM
42 | CCOC(=O)c1c[nH]c2cc(Cl)cc(Cl)c2c1=O | > 11.5 µM | > 11.5 µM | –
